By EC50 is commonly meant the concentration giving half of the maximal effect.

This test has as its target mGluR4 (Homo sapiens, UniProt Q14833). In words: mGlu4 PAM potentiation assay, CHO cells transfected with human mGluR4, Ca2+-sensitive dye fluorescence. It is filed as cell-based. As to the method:
The disclosed compounds and compositions can be evaluated for their ability to act as a potentiator of metabotropic glutamate receptor activity, in particular mGluR4 activity, by any suitable known methodology known in the art. For example, Chinese Hamster Ovary (CHO) cells transfected with human mGluR4 or HEK cells co-transfected with rat mGluR4 and the G-protein regulated Inwardly Rectifying Potassium channel (GIRK) were plated in clear bottom, assay plates for assay in a Hamamatsu FDSS Fluorometric Plate Reader. The cells were loaded with either a Ca2+-sensitive fluorescent dye or the thallium responsive dye and the plates were washed and placed into a suitable kinetic plate reader. For human mGluR4 assays, a fluorescence baseline was established for 3-5 seconds, the disclosed compounds were then added to the cells, and the response in cells was measured. Approximately two and a half minutes later, a concentration of mGluR4 orthosteric agonist (e.g. glutamate, L-AP4, or L-SOP) eliciting approximately 20% (EC20) of the maximal agonist response was added to the cells, and the response was measured. Two minutes later, a concentration of mGluR4 agonist (e.g. glutamate, L-AP4, or L-SOP) eliciting 80% (EC80) of the maximal agonist response was added to the cells, and the response was measured. For rat mGluR4/GIRK experiments, a baseline was established for approximately five seconds, disclosed compounds were added, and either an EC20 or EC80 concentration of agonist was added approximately two and one half minutes later. Potentiation or antagonism of the agonist response of mGluR4 by the disclosed compounds was observed as an increase or decrease in response to the EC20 concentration of agonist in the presence of compound compared to the response to agonist in the absence of compound. Similarly, potentiation or antagonism of the agonist response of mGluR4 by the disclosed Compounds was observed as an increase or decrease in response to the EC80 concentration of agonist in the presence of compound compared to the response to agonist in the absence of compound.
The above described assay operated in two modes. In the first mode, a range of concentrations of the disclosed compounds are added to cells, followed by a single fixed concentration of agonist. If the compound acts as a potentiatior, an EC50 value for potentiation and a maximum extent of potentiation by the compound at this concentration of agonist is determined by non-linear curve fitting. If the compound acts as an antagonist, an IC50 value is determined by non-linear curve fitting. In the second mode, several fixed concentrations of the disclosed compounds are added to various wells on a plate, followed by a range in concentrations of agonist for each concentration of disclosed compound. The EC50 values for the agonist at each concentration of compound are determined by non-linear curve fitting. A decrease in the EC50 value of the agonist with increasing concentrations of the sample compound (a leftward shift of the agonist concentration-response curve) is an indication of the degree of mGluR4 potentiation at a given concentration of the sample compound. A decrease in the maximal response of the agonist with increasing concentrations of the sample compounds, with or without a rightward shift in agonist potency, is an indication of the degree of antagonism at mGluR4. The second mode also indicates whether the sample compounds also affect the maximum response to mGluR4 to agonists.

Chain of mGluR4 (Q14833 33-912 limits assumed): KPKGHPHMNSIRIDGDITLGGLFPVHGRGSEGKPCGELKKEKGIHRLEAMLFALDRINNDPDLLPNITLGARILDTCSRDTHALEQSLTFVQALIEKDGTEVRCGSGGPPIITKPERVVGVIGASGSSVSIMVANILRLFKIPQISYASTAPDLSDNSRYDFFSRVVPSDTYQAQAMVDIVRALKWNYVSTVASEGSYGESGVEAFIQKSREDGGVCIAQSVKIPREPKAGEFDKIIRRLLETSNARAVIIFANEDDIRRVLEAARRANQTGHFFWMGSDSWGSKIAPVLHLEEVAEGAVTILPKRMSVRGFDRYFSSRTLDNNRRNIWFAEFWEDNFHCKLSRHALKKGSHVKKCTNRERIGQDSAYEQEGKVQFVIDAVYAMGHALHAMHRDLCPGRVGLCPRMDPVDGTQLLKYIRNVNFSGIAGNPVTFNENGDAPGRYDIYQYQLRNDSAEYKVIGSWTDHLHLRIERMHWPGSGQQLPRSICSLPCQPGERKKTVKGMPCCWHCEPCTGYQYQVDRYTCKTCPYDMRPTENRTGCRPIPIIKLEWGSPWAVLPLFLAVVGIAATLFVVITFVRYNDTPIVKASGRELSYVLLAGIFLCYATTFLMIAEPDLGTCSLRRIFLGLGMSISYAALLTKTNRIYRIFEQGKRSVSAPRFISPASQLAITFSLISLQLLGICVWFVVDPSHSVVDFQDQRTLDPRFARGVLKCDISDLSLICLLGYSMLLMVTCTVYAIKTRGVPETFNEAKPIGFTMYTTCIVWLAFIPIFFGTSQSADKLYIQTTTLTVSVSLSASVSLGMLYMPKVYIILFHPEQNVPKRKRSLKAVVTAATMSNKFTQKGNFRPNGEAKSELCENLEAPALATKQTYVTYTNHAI

Regarding `Nc1cccnc1C(=O)Nc1ccc2c(O[C@H]3CCOC3)ncc(F)c2c1` [Compound 71], the EC50 amounted to 493 nM.

Turning to `O=C(Nc1ccc2c(OCc3cccnc3)nccc2c1)c1ccc(F)cn1` [Compound 114], the half-maximal effective concentration (EC50) was 228 nM.

`O=C(Nc1cc(F)c2c(OCC3COCCO3)nccc2c1)c1ncccc1F` (stereo not drawn) [Compound 92]: the half-maximal effective concentration (EC50) was 152 nM.

For `O=C(Nc1ccc2c(OC3CCOCC3F)nccc2c1)c1ccccn1` (stereo not drawn) [Compound 40], the EC50 was 183 nM.

Regarding `Cc1ccoc1C(=O)Nc1ccc2c(OCC3CCOC3)nccc2c1` (stereo not drawn) [Compound 110], the concentration giving a half-maximal response (EC50) came to 707 nM.

Take `Nc1cccnc1C(=O)Nc1ccc2c(OCC3CCOCC3)ncc(F)c2c1` [Compound 66]: the concentration giving a half-maximal response (EC50) came out at 152 nM.

For `CC1(C)CC(Oc2nccc3cc(NC(=O)c4ncccc4O)ccc23)CCO1` (stereo not drawn) [Compound 25], the EC50 stood at 147 nM.

For `O=C(Nc1ccc2c(OCC3CCOC3)nccc2c1)c1nc(Cl)ccc1F` (stereo not drawn) [Compound 89], the EC50 was 822 nM.

Take `CC1(C)CC(Oc2nccc3cc(NC(=O)c4ccccn4)ccc23)C(C)(C)O1` (stereo not drawn) [Compound 36]: the EC50 came to 940 nM.

Turning to `CC(C)(C)OCCOc1nccc2cc(NC(=O)c3ncccc3O)ccc12` [Compound 30], the 50% effective concentration (EC50) is 493 nM.

For the molecule `CCOCCOc1nccc2cc(NC(=O)c3ccccn3)ccc12` [Compound 3], the concentration giving a half-maximal response (EC50) was determined as 436 nM.

In the case of `O=C(Nc1ccc2c(OCC3CCOCC3)nccc2c1)c1cccc(F)n1` [Compound 109], the EC50 worked out at 91.5 nM.

Turning to `CC1(C)CC(Oc2nccc3cc(NC(=O)c4ccc(F)cn4)cc(F)c23)CCO1` (stereo not drawn) [Compound 102], the half-maximal effective concentration (EC50) worked out at 142 nM.

In the case of `Nc1nccnc1C(=O)Nc1ccc2c(OCC3CCOC3)nccc2c1` (stereo not drawn) [Compound 99], the concentration for a half-maximal effect (EC50) turned out to be 83.1 nM.

As for `O=C(Nc1ccc2c(OCC3CCOC3)nccc2c1)c1ccc(O)cn1` (stereo not drawn) [Compound 108], the EC50 worked out at 65.9 nM.

Take `CC1CC(Oc2nccc3cc(NC(=O)c4ncccc4O)ccc23)CCO1` (stereo not drawn) [Compound 45]: the EC50 was 447 nM.

As for `O=C(Nc1ccc2c(OCC3COCCO3)nccc2c1)c1cccc(F)n1` (stereo not drawn) [Compound 118], the half-maximal effective concentration (EC50) was 216 nM.

As for `O=C(Nc1ccc2c(OC3CCSC3)nccc2c1)c1ccccn1` (stereo not drawn) [Compound 54], the EC50 worked out at 915 nM.

Regarding `O=C(Nc1ccc2c(NC3CC(F)(F)C3)nccc2c1)c1ccccn1` [Compound 75], the concentration for a half-maximal effect (EC50) came out at 715 nM.

For `CC1(C)CC(COc2nccc3cc(NC(=O)c4ncccc4N)ccc23)CCO1` (stereo not drawn) [Compound 35], the 50% effective concentration (EC50) stood at 227 nM.

As for `CC1(C)CC(Oc2nccc3cc(NC(=O)c4ncccc4N)ccc23)CCO1` (stereo not drawn) [Compound 24], the concentration giving a half-maximal response (EC50) amounted to 310 nM.

The values above are taken from patent US11319304B2, “Pyridine quinoline compounds as MGLUR4 allosteric potentiators, compositions, and methods of treating neurological dysfunction” (Vanderbilt University, priority 2017, dated 2022).
